Results on three compounds are retold here after patent publication US20140140931A1, “ANTIOXIDANT, NEUROPROTECTIVE AND ANTINEOPLASTIC NANOPARTICLES COMPRISING A THERAPEUTIC AGENT ON AN AMPHIPHILIC SPACER OR AN AMPHIPHILIC POLYMER” (CEDARS-SINAI MEDICAL CENTER, priority 2011, published 2014).

The structures appear in SMILES notation.

The subject of data set [1] is intracranial U87 MG tumor xenograft. Kind of data set: Survival study of mice with intracranial U87 MG GBM xenograft. The class given is in vivo, athymic nu/nu mice. The following applies: i.v. every three days for 4 weeks from day 7 (16 mg/kg/day CPT-TEG-ALA).
Experimental: All animal studies were performed according to Cedars-Sinai Medical Center Institutional Animal Care and Use Committee protocols. Female 6- to 8-week-old athymic nu/nu mice (Charles River Laboratories) were used for all experiments. […] For Intracranial tumor model, mice underwent intracranial stereotactic implantation of U87 MG cells. Mice were anesthetized using a ketamine and dexmedetomidine combination as a single intraperitoneal injection. 10^5 U87 MG cells suspended in 2 μl of PBS were implanted in the right frontal region of the brain using a Hamilton syringe. The animals received intraperitoneal injection of atipamezole to reverse the dexmedetomidine effect. A single subcutaneous injection of buprenorphine was administered for pain relief.
Two perpendicular diameters of the tumor are measured, and the volume is calculated according to the equation: V (mm^3)=L (mm)×W^2 (mm^2)/2, where L is the longest diameter and W is the diameter perpendicular to L. In the intracranial model, the animals (n=8) received intravenous (tail vein) injection of nanoprodrugs (16 mg/kg/day CPT-TEG-ALA) beginning 7 days after tumor implantation every three days for 4 weeks. […] As control, animals received injection of irinotecan, α-tocopherol nanosuspension, and saline
For mouse survival study, log-rank statistical analysis was performed. […]
A further data set deals with P-glycoprotein (Pgp). The settings on record: cited from earlier work.
For data set [2] the following is noted: 30 minutes after administration; cited from earlier work.
For data set [3] the following is noted: cited from earlier work.

`CCc1c2c(nc3ccc(OC(=O)N4CCC(N5CCCCC5)CC4)cc13)-c1cc3c(c(=O)n1C2)COC(=O)[C@]3(O)CC` [irinotecan] yielded a Median survival time in data set [1] of 41.0 days. The Pgp substrate result with P-glycoprotein (Pgp) was “substrates”. Regarding `CC[C@@]1(O)C(=O)OCc2c1cc1n(c2=O)Cc2cc3ccccc3nc2-1` [camptothecin, (S)-4-ethyl-4-hydroxy-1H-pyran-[3′,4′:6, 7]indolizino[1,2-b]quinoline-3,14(4H, 12H)-dione], in data set [2], the “Lactone form hydrolyzed to an open ring” value is on record as 50%. Also, in data set [3], the Solubility in water result was “essentially insoluble in water”.

Take `CCc1c2c(nc3ccc(O)cc13)-c1cc3c(c(=O)n1C2)COC(=O)[C@]3(O)CC` [SN38]: the Pgp substrate result in the data set with P-glycoprotein (Pgp) was “substrates”.
